Reference: BigSolDB 2.1

CN1CCN(C2=Nc3cc(Cl)ccc3Nc3ccccc32)CC1
solubility (mole fraction) (in 2-butanone, 278.15 K): 0.0216 | solubility (mole fraction) (in 2-butanone, 283.15 K): 0.0242 | solubility (mole fraction) (in 2-butanone, 288.15 K): 0.0274 | solubility (mole fraction) (in 2-butanone, 293.15 K): 0.0303 | solubility (mole fraction) (in 2-butanone, 298.15 K): 0.0339 | solubility (mole fraction) (in 2-butanone, 303.15 K): 0.0374 | solubility (mole fraction) (in 2-butanone, 308.15 K): 0.0416 | solubility (mole fraction) (in 2-butanone, 313.15 K): 0.0458 | solubility (mole fraction) (in 2-butanone, 318.15 K): 0.0505 | solubility (mole fraction) (in 2-butanone, 323.15 K): 0.0558 | solubility (mole fraction) (in DMF, 278.15 K): 0.0953 | solubility (mole fraction) (in DMF, 283.15 K): 0.1 | solubility (mole fraction) (in DMF, 288.15 K): 0.106 | solubility (mole fraction) (in DMF, 293.15 K): 0.112 | solubility (mole fraction) (in DMF, 298.15 K): 0.117 | solubility (mole fraction) (in DMF, 303.15 K): 0.123 | solubility (mole fraction) (in DMF, 308.15 K): 0.129 | solubility (mole fraction) (in DMF, 313.15 K): 0.135 | solubility (mole fraction) (in DMF, 318.15 K): 0.141 | solubility (mole fraction) (in DMF, 323.15 K): 0.148 | solubility (mole fraction) (in THF, 278.15 K): 0.0624 | solubility (mole fraction) (in THF, 283.15 K): 0.0668 | solubility (mole fraction) (in THF, 288.15 K): 0.0716 | solubility (mole fraction) (in THF, 293.15 K): 0.0765 | solubility (mole fraction) (in THF, 298.15 K): 0.0815 | solubility (mole fraction) (in THF, 303.15 K): 0.0866 | solubility (mole fraction) (in THF, 308.15 K): 0.0919 | solubility (mole fraction) (in THF, 313.15 K): 0.0978 | solubility (mole fraction) (in THF, 318.15 K): 0.103 | solubility (mole fraction) (in THF, 323.15 K): 0.109 | solubility (mole fraction) (in acetone, 278.15 K): 0.0116 | solubility (mole fraction) (in acetone, 283.15 K): 0.0133 | solubility (mole fraction) (in acetone, 288.15 K): 0.0151 | solubility (mole fraction) (in acetone, 293.15 K): 0.0172 | solubility (mole fraction) (in acetone, 298.15 K): 0.0197 | solubility (mole fraction) (in acetone, 303.15 K): 0.0223 | solubility (mole fraction) (in acetone, 308.15 K): 0.0251 | solubility (mole fraction) (in acetone, 313.15 K): 0.0283 | solubility (mole fraction) (in acetone, 318.15 K): 0.0323 | solubility (mole fraction) (in acetone, 323.15 K): 0.0363 | solubility (mole fraction) (in acetonitrile, 278.15 K): 0.00213 | solubility (mole fraction) (in acetonitrile, 283.15 K): 0.00234 | solubility (mole fraction) (in acetonitrile, 288.15 K): 0.0026 | solubility (mole fraction) (in acetonitrile, 293.15 K): 0.00285 | solubility (mole fraction) (in acetonitrile, 298.15 K): 0.00316 | solubility (mole fraction) (in acetonitrile, 303.15 K): 0.00344 | solubility (mole fraction) (in acetonitrile, 308.15 K): 0.0038 | solubility (mole fraction) (in acetonitrile, 313.15 K): 0.00413 | solubility (mole fraction) (in acetonitrile, 318.15 K): 0.00452 | solubility (mole fraction) (in acetonitrile, 323.15 K): 0.0049 | solubility (mole fraction) (in chloroform, 278.15 K): 0.0625 | solubility (mole fraction) (in chloroform, 283.15 K): 0.0652 | solubility (mole fraction) (in chloroform, 288.15 K): 0.0681 | solubility (mole fraction) (in chloroform, 293.15 K): 0.0712 | solubility (mole fraction) (in chloroform, 298.15 K): 0.0741 | solubility (mole fraction) (in chloroform, 303.15 K): 0.0771 | solubility (mole fraction) (in chloroform, 308.15 K): 0.0801 | solubility (mole fraction) (in chloroform, 313.15 K): 0.0837 | solubility (mole fraction) (in chloroform, 318.15 K): 0.0871 | solubility (mole fraction) (in chloroform, 323.15 K): 0.0905 | solubility (mole fraction) (in ethanol, 278.15 K): 0.00533 | solubility (mole fraction) (in ethanol, 283.15 K): 0.0059 | solubility (mole fraction) (in ethanol, 288.15 K): 0.0066 | solubility (mole fraction) (in ethanol, 293.15 K): 0.00735 | solubility (mole fraction) (in ethanol, 298.15 K): 0.00811 | solubility (mole fraction) (in ethanol, 303.15 K): 0.0089 | solubility (mole fraction) (in ethanol, 308.15 K): 0.00988 | solubility (mole fraction) (in ethanol, 313.15 K): 0.0108 | solubility (mole fraction) (in ethanol, 318.15 K): 0.0119 | solubility (mole fraction) (in ethanol, 323.15 K): 0.0131 | solubility (mole fraction) (in ethyl acetate, 278.15 K): 0.0109 | solubility (mole fraction) (in ethyl acetate, 283.15 K): 0.0121 | solubility (mole fraction) (in ethyl acetate, 288.15 K): 0.0135 | solubility (mole fraction) (in ethyl acetate, 293.15 K): 0.0152 | solubility (mole fraction) (in ethyl acetate, 298.15 K): 0.0169 | solubility (mole fraction) (in ethyl acetate, 303.15 K): 0.0191 | solubility (mole fraction) (in ethyl acetate, 308.15 K): 0.0209 | solubility (mole fraction) (in ethyl acetate, 313.15 K): 0.0232 | solubility (mole fraction) (in ethyl acetate, 318.15 K): 0.0256 | solubility (mole fraction) (in ethyl acetate, 323.15 K): 0.0283 | solubility (mole fraction) (in ethyl formate, 278.15 K): 0.032 | solubility (mole fraction) (in ethyl formate, 283.15 K): 0.0343 | solubility (mole fraction) (in ethyl formate, 288.15 K): 0.0367 | solubility (mole fraction) (in ethyl formate, 293.15 K): 0.0393 | solubility (mole fraction) (in ethyl formate, 298.15 K): 0.0419 | solubility (mole fraction) (in ethyl formate, 303.15 K): 0.0443 | solubility (mole fraction) (in ethyl formate, 308.15 K): 0.047 | solubility (mole fraction) (in ethyl formate, 313.15 K): 0.0499 | solubility (mole fraction) (in ethyl formate, 318.15 K): 0.0527 | solubility (mole fraction) (in ethyl formate, 323.15 K): 0.0564 | solubility (mole fraction) (in isobutanol, 278.15 K): 0.00666 | solubility (mole fraction) (in isobutanol, 283.15 K): 0.00731 | solubility (mole fraction) (in isobutanol, 288.15 K): 0.00809 | solubility (mole fraction) (in isobutanol, 293.15 K): 0.00888 | solubility (mole fraction) (in isobutanol, 298.15 K): 0.00987 | solubility (mole fraction) (in isobutanol, 303.15 K): 0.0108 | solubility (mole fraction) (in isobutanol, 308.15 K): 0.0119 | solubility (mole fraction) (in isobutanol, 313.15 K): 0.013 | solubility (mole fraction) (in isobutanol, 318.15 K): 0.0142 | solubility (mole fraction) (in isobutanol, 323.15 K): 0.0155 | solubility (mole fraction) (in isopentanol, 278.15 K): 0.0083 | solubility (mole fraction) (in isopentanol, 283.15 K): 0.00932 | solubility (mole fraction) (in isopentanol, 288.15 K): 0.0103 | solubility (mole fraction) (in isopentanol, 293.15 K): 0.0116 | solubility (mole fraction) (in isopentanol, 298.15 K): 0.0128 | solubility (mole fraction) (in isopentanol, 303.15 K): 0.0142 | solubility (mole fraction) (in isopentanol, 308.15 K): 0.0156 | solubility (mole fraction) (in isopentanol, 313.15 K): 0.0173 | solubility (mole fraction) (in isopentanol, 318.15 K): 0.019 | solubility (mole fraction) (in isopentanol, 323.15 K): 0.0212 | solubility (mole fraction) (in isopropanol, 278.15 K): 0.00278 | solubility (mole fraction) (in isopropanol, 283.15 K): 0.00322 | solubility (mole fraction) (in isopropanol, 288.15 K): 0.00367 | solubility (mole fraction) (in isopropanol, 293.15 K): 0.00419 | solubility (mole fraction) (in isopropanol, 298.15 K): 0.00487 | solubility (mole fraction) (in isopropanol, 303.15 K): 0.00544 | solubility (mole fraction) (in isopropanol, 308.15 K): 0.00615 | solubility (mole fraction) (in isopropanol, 313.15 K): 0.00693 | solubility (mole fraction) (in isopropanol, 318.15 K): 0.00781 | solubility (mole fraction) (in isopropanol, 323.15 K): 0.00894 | solubility (mole fraction) (in methanol, 278.15 K): 0.00633 | solubility (mole fraction) (in methanol, 283.15 K): 0.00702 | solubility (mole fraction) (in methanol, 288.15 K): 0.00766 | solubility (mole fraction) (in methanol, 293.15 K): 0.00839 | solubility (mole fraction) (in methanol, 298.15 K): 0.00921 | solubility (mole fraction) (in methanol, 303.15 K): 0.00999 | solubility (mole fraction) (in methanol, 308.15 K): 0.0109 | solubility (mole fraction) (in methanol, 313.15 K): 0.012 | solubility (mole fraction) (in methanol, 318.15 K): 0.013 | solubility (mole fraction) (in methanol, 323.15 K): 0.014 | solubility (mole fraction) (in methyl acetate, 278.15 K): 0.0124 | solubility (mole fraction) (in methyl acetate, 283.15 K): 0.0141 | solubility (mole fraction) (in methyl acetate, 288.15 K): 0.0158 | solubility (mole fraction) (in methyl acetate, 293.15 K): 0.0173 | solubility (mole fraction) (in methyl acetate, 298.15 K): 0.019 | solubility (mole fraction) (in methyl acetate, 303.15 K): 0.021 | solubility (mole fraction) (in methyl acetate, 308.15 K): 0.0229 | solubility (mole fraction) (in methyl acetate, 313.15 K): 0.0251 | solubility (mole fraction) (in methyl acetate, 318.15 K): 0.0277 | solubility (mole fraction) (in methyl acetate, 323.15 K): 0.0303 | solubility (mole fraction) (in n-butanol, 278.15 K): 0.00796 | solubility (mole fraction) (in n-butanol, 283.15 K): 0.00891 | solubility (mole fraction) (in n-butanol, 288.15 K): 0.01 | solubility (mole fraction) (in n-butanol, 293.15 K): 0.0113 | solubility (mole fraction) (in n-butanol, 298.15 K): 0.0126 | solubility (mole fraction) (in n-butanol, 303.15 K): 0.0141 | solubility (mole fraction) (in n-butanol, 308.15 K): 0.0154 | solubility (mole fraction) (in n-butanol, 313.15 K): 0.0172 | solubility (mole fraction) (in n-butanol, 318.15 K): 0.0189 | solubility (mole fraction) (in n-butanol, 323.15 K): 0.0208 | solubility (mole fraction) (in n-pentanol, 278.15 K): 0.00905 | solubility (mole fraction) (in n-pentanol, 283.15 K): 0.0102 | solubility (mole fraction) (in n-pentanol, 288.15 K): 0.0115 | solubility (mole fraction) (in n-pentanol, 293.15 K): 0.0128 | solubility (mole fraction) (in n-pentanol, 298.15 K): 0.0143 | solubility (mole fraction) (in n-pentanol, 303.15 K): 0.0159 | solubility (mole fraction) (in n-pentanol, 308.15 K): 0.0174 | solubility (mole fraction) (in n-pentanol, 313.15 K): 0.0193 | solubility (mole fraction) (in n-pentanol, 318.15 K): 0.0213 | solubility (mole fraction) (in n-pentanol, 323.15 K): 0.0231 | solubility (mole fraction) (in n-propanol, 278.15 K): 0.00708 | solubility (mole fraction) (in n-propanol, 283.15 K): 0.00814 | solubility (mole fraction) (in n-propanol, 288.15 K): 0.00924 | solubility (mole fraction) (in n-propanol, 293.15 K): 0.0105 | solubility (mole fraction) (in n-propanol, 298.15 K): 0.0118 | solubility (mole fraction) (in n-propanol, 303.15 K): 0.0134 | solubility (mole fraction) (in n-propanol, 308.15 K): 0.0148 | solubility (mole fraction) (in n-propanol, 313.15 K): 0.0164 | solubility (mole fraction) (in n-propanol, 318.15 K): 0.0183 | solubility (mole fraction) (in n-propanol, 323.15 K): 0.0204 | solubility (mole fraction) (in sec-butanol, 278.15 K): 0.0046 | solubility (mole fraction) (in sec-butanol, 283.15 K): 0.00509 | solubility (mole fraction) (in sec-butanol, 288.15 K): 0.00566 | solubility (mole fraction) (in sec-butanol, 293.15 K): 0.00617 | solubility (mole fraction) (in sec-butanol, 298.15 K): 0.0068 | solubility (mole fraction) (in sec-butanol, 303.15 K): 0.00744 | solubility (mole fraction) (in sec-butanol, 308.15 K): 0.00812 | solubility (mole fraction) (in sec-butanol, 313.15 K): 0.00893 | solubility (mole fraction) (in sec-butanol, 318.15 K): 0.00975 | solubility (mole fraction) (in sec-butanol, 323.15 K): 0.0107
